Source: patent publication US20070191299A1, “Extension Of The Expression of Transgenic Proteins By Immunomodulation” (priority 1997, published 2007)

What was measured:
[1] = test system: reporter gene β-galactosidase expression in the liver; assay: Reporter gene (β-galactosidase) expression in the liver after recombinant adenovirus administration (Example 1); format: in vivo, mice
[2] = test system: antibodies after recombinant adenovirus vector administration; assay: Formation of antibodies after vector administration (Example 1); format: in vivo; conditions: mice; cyclosporin A 50-100 mg/kg/day, DSG 10 mg/kg/day for 21 days after recombinant adenovirus
Procedure: Cyclosporin A (50-100 mg/kg/day) and DSG (10 mg/kg/day) was administered to the mice over a period of 21 days after administration of a recombinant adenovirus (reporter gene β-galactosidase; Bett et al. Proc. Natl. Acad. Sci. USA, 91 (1994), pages 8802-8806).
In the control group, it was possible to detect the formation of antibodies even 5 days after vector administration.

[3] = test system: antibody load against viral proteins; assay: Mean antibody titer against viral proteins after adenovirus administration (Example 2); format: in vivo; conditions: NMRI mice
Procedure: (§1) On day 0, all mice were administered-a dose of 1×10^10 adenoviruses via the tail vein. The recombinant adenoviruses carry the gene for human alpha 1-antitrypsin as a reporter gene found in the serum. This gene has proven to be a practicable reporter, since it is not antigenic in the mouse, but nevertheless can be differentiated from murine alpha 1-antitrypsin using a specific antibody. The half-life of the antiprotease is approximately 3-4 days, so that the serum level reflects the current synthesis capacity of the liver very well.
(§2) The total collective was subdivided into five groups of 4 animals each, which were treated as follows: • 1st group: control group—no immunosuppressant treatment, administration of saline solution i.p. for the period of 5 days after virus administration. • 2nd . group: FK 506 group—administration of 1 mg/kg/day of FK 506 i.p. beginning 1 day before virus administration and then for a period of 5 days. • 3rd group: cyclosporin A group—administration of 20 mg/kg/day i.p. beginning 1 day before virus administration and then for a period of 5 days. • 4th group: DSG group—administration of 10 mg/kg/day i.p. beginning 1 day before virus administration and then for the period of 5 days. • 5th group: DSG++ group—administration of 10 mg/kg/day i.p. beginning 1 day before virus administration and then daily for the period of five days and then twice weekly for the period of 150 days.
(§3) NMRI mice were used, since these mice, due to their genetic heterogeneity, develop an immunological reaction pattern which approaches that of a human population more closely than pure inbred strains; the price is an increased variability in the immunological reactivity. In spite of this, the individual groups develop significant reaction patterns.
The quantitative factor 15 days after discontinuing DSG is approximately 1.8. Continuous treatment (2× weekly) is no longer able to increase this effect dramatically. […] Even the transient administration of DSG reduces the antibody response in comparison with the control by more than 60% with, at the same time, a markedly positive effect on expression.

[4] = test system: human alpha 1-antitrypsin reporter gene expression; assay: Serum level of human α1-antitrypsin reporter after adenovirus administration (Example 2); format: in vivo; parameters: average serum level of human α1-antitrypsin: unit not given here; conditions: NMRI mice
Procedure: as §1, §2, §3

[5] = mice treated with DSG only for 5 days after vector administration, 42nd day after vector administration
[6] = day 30, DSG++ group: 10 mg/kg/day i.p. from 1 day before virus, daily for five days, then twice weekly for 150 days
[7] = day 30, i.p. from 1 day before virus then for 5 days (FK 506 1, cyclosporin A 20, DSG 10 mg/kg/day)
[8] = day 100, DSG++ group: 10 mg/kg/day i.p. from 1 day before virus, daily for five days, then twice weekly for 150 days
[9] = day 100, i.p. from 1 day before virus then for 5 days (FK 506 1, cyclosporin A 20, DSG 10 mg/kg/day)
[10] = day 150, DSG++ group: 10 mg/kg/day i.p. from 1 day before virus, daily for five days, then twice weekly for 150 days
[11] = day 150, i.p. from 1 day before virus then for 5 days (FK 506 1, cyclosporin A 20, DSG 10 mg/kg/day)
[12] = day 200, DSG++ group: 10 mg/kg/day i.p. from 1 day before virus, daily for five days, then twice weekly for 150 days
[13] = day 200, i.p. from 1 day before virus then for 5 days (FK 506 1, cyclosporin A 20, DSG 10 mg/kg/day)
[14] = day 5, i.p. from 1 day before virus then for 5 days (FK 506 1, cyclosporin A 20, DSG 10 mg/kg/day)
[15] = day 10, i.p. from 1 day before virus then for 5 days (FK 506 1, cyclosporin A 20, DSG 10 mg/kg/day)
[16] = day 20, i.p. from 1 day before virus then for 5 days (FK 506 1, cyclosporin A 20, DSG 10 mg/kg/day)
[17] = day 60, i.p. from 1 day before virus then for 5 days (FK 506 1, cyclosporin A 20, DSG 10 mg/kg/day)

Cl.Cl.Cl.N=C(N)NCCCCCCC(=O)NC(O)C(=O)NCCCCNCCCN (stereo not shown) [DSG, 1-amino-19-guanidine-11-hydroxy-4,9,12-triazanondecane-10,13-dione trihydrochloride]
proportion of animals with expression still measurable [1, 5]: approximately 50%
reporter gene expression relative to the maximal expression [1, 5]: approximately 10%
reporter gene expression after discontinuing the immunosuppressants ([1]; mice, 21 days after discontinuing 21-day treatment (42 days after vector administration)): a massive gene expression was still detectable
reporter gene expression in the liver over the treatment period ([1]; mice, cyclosporin A 50-100 mg/kg/day, DSG 10 mg/kg/day for 21 days after recombinant adenovirus, treatment period of 21 days): continues undecreased
antibody production [2]: completely eliminated
reduction of antibody load against viral proteins ([3]; continuous DSG treatment (2× weekly), after 150 days): approximately 90%
Mean antibody titer [3, 6]: 13005
Mean antibody titer [3, 7]: 26310
Mean antibody titer [3, 8]: 11251
Mean antibody titer [3, 9]: 31029
Mean antibody titer [3, 10]: 7335
Mean antibody titer [3, 11]: 25149
Mean antibody titer [3, 12]: 9669
Mean antibody titer [3, 13]: 20586
reduction of antibody response in comparison with the control ([3]; transient administration of DSG (5 days)): more than 60%
effect on antitrypsin expression ([4]; 5-day treatment with DSG): marked increase and prolongation of antitrypsin expression
quantitative factor (transgenic expression product of immunosuppressed group / nonimmunosuppressed control group) ([4]; 15 days after discontinuing DSG (5-day treatment, 10 mg/kg/day i.p.)): approximately 1.8
expression with continuous treatment compared with transient administration ([4]; continuous DSG treatment (2× weekly) versus transient administration): only slightly increased
average serum level of human α1-antitrypsin ([4]; day 5, DSG++ group: 10 mg/kg/day i.p. from 1 day before virus, daily for five days, then twice weekly for 150 days): 2775000
average serum level of human α1-antitrypsin [4, 14]: 2775000
average serum level of human α1-antitrypsin ([4]; day 10, DSG++ group: 10 mg/kg/day i.p. from 1 day before virus, daily for five days, then twice weekly for 150 days): 677500
average serum level of human α1-antitrypsin [4, 15]: 1560000
average serum level of human α1-antitrypsin ([4]; day 20, DSG++ group: 10 mg/kg/day i.p. from 1 day before virus, daily for five days, then twice weekly for 150 days): 1178750
average serum level of human α1-antitrypsin [4, 16]: 1826250
average serum level of human α1-antitrypsin [4, 6]: 1082500
average serum level of human α1-antitrypsin [4, 7]: 1001250
average serum level of human α1-antitrypsin ([4]; day 60, DSG++ group: 10 mg/kg/day i.p. from 1 day before virus, daily for five days, then twice weekly for 150 days): 297500
average serum level of human α1-antitrypsin [4, 17]: 213500
average serum level of human α1-antitrypsin [4, 8]: 68750
average serum level of human α1-antitrypsin [4, 9]: 51750
average serum level of human α1-antitrypsin [4, 10]: 17125
average serum level of human α1-antitrypsin [4, 11]: 13125
average serum level of human α1-antitrypsin [4, 12]: 14350
average serum level of human α1-antitrypsin [4, 13]: 10625

C=CC[C@@H]1/C=C(\C)C[C@H](C)C[C@H](OC)[C@H]2O[C@@](O)(C(=O)C(=O)N3CCCC[C@H]3C(=O)O[C@H](/C(C)=C/[C@@H]3CC[C@@H](O)[C@H](OC)C3)[C@H](C)[C@@H](O)CC1=O)[C@H](C)C[C@@H]2OC [FK 506]
Mean antibody titer [3, 7]: 65536
Mean antibody titer [3, 9]: 43832
Mean antibody titer [3, 11]: 25149
Mean antibody titer [3, 13]: 17710
average serum level of human α1-antitrypsin [4, 14]: 1725000
average serum level of human α1-antitrypsin [4, 15]: 1278750
average serum level of human α1-antitrypsin [4, 16]: 376250
average serum level of human α1-antitrypsin [4, 7]: 17475
average serum level of human α1-antitrypsin [4, 17]: 4258
average serum level of human α1-antitrypsin [4, 9]: 313
average serum level of human α1-antitrypsin [4, 11]: 1.5
average serum level of human α1-antitrypsin [4, 13]: 1.5
